In ChEMBL document CHEMBL1139978, “Synthesis and radiopharmacological characterization of [11C]AL-438 as a nonsteroidal ligand for imaging brain glucocorticoid receptors” (Bioorg Med Chem Lett, 2007):

How the values were obtained:
Thymus [1] = assay: Biodistribution in corticosterone pretreated Wistar rat thymus at 20 MBq, iv after 60 mins; assay type: ADME, organism-based; conditions: in vivo, 1 h
Muscle tissue [2] = assay: Biodistribution in corticosterone pretreated Wistar rat muscle at 20 MBq, iv after 60 mins; assay type: ADME, organism-based; conditions: in vivo, 1 h
Liver [3] = assay: Biodistribution in corticosterone pretreated Wistar rat liver at 20 MBq, iv after 5 mins; assay type: ADME, organism-based; conditions: in vivo
Lung [4] = assay: Biodistribution in Wistar rat lung at 20 MBq, iv after 60 mins; assay type: ADME, organism-based; conditions: in vivo, 1 h
Harderian gland [5] = assay: Biodistribution in Wistar rat harderian gland at 20 MBq, iv after 5 mins; assay type: ADME, organism-based; conditions: in vivo
Hippocampus [6] = assay: Biodistribution in corticosterone pretreated Wistar rat hippocampus at 20 MBq, iv after 5 mins; assay type: ADME, organism-based; conditions: in vivo
Rattus norvegicus [7] = assay: Biodistribution in Wistar rat fat at 20 MBq, iv after 5 mins; assay type: ADME, organism-based, Adipose tissue; conditions: in vivo
Lung [8] = assay: Biodistribution in Wistar rat lung at 20 MBq, iv after 5 mins; assay type: ADME, organism-based; conditions: in vivo
Rattus norvegicus [9] = assay: Biodistribution in Wistar rat brown fat at 20 MBq, iv after 5 mins; assay type: ADME, organism-based, Brown adipose tissue; conditions: in vivo
Muscle tissue [10] = assay: Biodistribution in corticosterone pretreated Wistar rat muscle at 20 MBq, iv after 5 mins; assay type: ADME, organism-based; conditions: in vivo
Cerebellum [11] = assay: Biodistribution in corticosterone pretreated Wistar rat cerebellum at 20 MBq, iv after 5 mins; assay type: ADME, organism-based; conditions: in vivo
Rattus norvegicus [12] = assay: Biodistribution in Wistar rat testis at 20 MBq, iv after 5 mins; assay type: ADME, organism-based; conditions: in vivo
Rattus norvegicus [13] = assay: Biodistribution in corticosterone pretreated Wistar rat testis at 20 MBq, iv after 5 mins; assay type: ADME, organism-based; conditions: in vivo
Rattus norvegicus [14] = assay: Biodistribution in corticosterone pretreated Wistar rat brown fat at 20 MBq, iv after 5 mins; assay type: ADME, organism-based, Brown adipose tissue; conditions: in vivo
Liver [15] = assay: Biodistribution in Wistar rat liver at 20 MBq, iv after 5 mins; assay type: ADME, organism-based; conditions: in vivo
Blood [16] = assay: Biodistribution in Wistar rat blood at 20 MBq, iv after 60 mins; assay type: ADME, organism-based; conditions: in vivo, 1 h
Rattus norvegicus [17] = assay: Biodistribution in Wistar rat rest of brain at 20 MBq, iv after 60 mins; assay type: ADME, organism-based; conditions: in vivo, 1 h
Cerebellum [18] = assay: Biodistribution in Wistar rat cerebellum at 20 MBq, iv after 60 mins; assay type: ADME, organism-based; conditions: in vivo, 1 h
Hippocampus [19] = assay: Biodistribution in Wistar rat hippocampus at 20 MBq, iv after 5 mins; assay type: ADME, organism-based; conditions: in vivo
Lung [20] = assay: Biodistribution in corticosterone pretreated Wistar rat lung at 20 MBq, iv after 5 mins; assay type: ADME, organism-based; conditions: in vivo
Blood [21] = assay: Biodistribution in Wistar rat blood at 20 MBq, iv after 5 mins; assay type: ADME, organism-based; conditions: in vivo
Liver [22] = assay: Biodistribution in corticosterone pretreated Wistar rat liver at 20 MBq, iv after 60 mins; assay type: ADME, organism-based; conditions: in vivo, 1 h
Cortex = assay: Biodistribution in Wistar rat cortex at 20 MBq, iv after 60 mins; assay type: ADME, organism-based; conditions: in vivo, 1 h
Harderian gland [23] = assay: Biodistribution in Wistar rat harderian gland at 20 MBq, iv after 60 mins; assay type: ADME, organism-based; conditions: in vivo, 1 h
Heart [24] = assay: Biodistribution in Wistar rat heart at 20 MBq, iv after 5 mins; assay type: ADME, organism-based; conditions: in vivo
Muscle tissue [25] = assay: Biodistribution in Wistar rat muscle at 20 MBq, iv after 5 mins; assay type: ADME, organism-based; conditions: in vivo
Pituitary gland [26] = assay: Biodistribution in corticosterone pretreated Wistar rat pituitary at 20 MBq, iv after 5 mins; assay type: ADME, organism-based; conditions: in vivo
Blood [27] = assay: Biodistribution in corticosterone pretreated Wistar rat blood at 20 MBq, iv after 60 mins; assay type: ADME, organism-based; conditions: in vivo, 1 h
Thymus [28] = assay: Biodistribution in corticosterone pretreated Wistar rat thymus at 20 MBq, iv after 5 mins; assay type: ADME, organism-based; conditions: in vivo
Pituitary gland [29] = assay: Biodistribution in corticosterone pretreated Wistar rat pituitary at 20 MBq, iv after 60 mins; assay type: ADME, organism-based; conditions: in vivo, 1 h
Adrenal [30] = assay: Biodistribution in corticosterone pretreated Wistar rat adrenal at 20 MBq, iv after 5 mins; assay type: ADME, organism-based, Adrenal tissue; conditions: in vivo
Spleen [31] = assay: Biodistribution in corticosterone pretreated Wistar rat spleen at 20 MBq, iv after 60 mins; assay type: ADME, organism-based; conditions: in vivo, 1 h
Adrenal [32] = assay: Biodistribution in corticosterone pretreated Wistar rat adrenal at 20 MBq, iv after 60 mins; assay type: ADME, organism-based, Adrenal tissue; conditions: in vivo, 1 h
Rattus norvegicus [33] = assay: Biodistribution in Wistar rat brown fat at 20 MBq, iv after 60 mins; assay type: ADME, organism-based, Brown adipose tissue; conditions: in vivo, 1 h
Heart [34] = assay: Biodistribution in Wistar rat heart at 20 MBq, iv after 60 mins; assay type: ADME, organism-based; conditions: in vivo, 1 h
Femur = assay: Biodistribution in Wistar rat femur at 20 MBq, iv after 60 mins; assay type: ADME, organism-based; conditions: in vivo, 1 h
Kidney = assay: Biodistribution in corticosterone pretreated Wistar rat kidney at 20 MBq, iv after 60 mins; assay type: ADME, organism-based; conditions: in vivo, 1 h
Spleen [35] = assay: Biodistribution in Wistar rat spleen at 20 MBq, iv after 5 mins; assay type: ADME, organism-based; conditions: in vivo
Rattus norvegicus [36] = assay: Biodistribution in corticosterone pretreated Wistar rat rest of brain at 20 MBq, iv after 5 mins; assay type: ADME, organism-based; conditions: in vivo
Rattus norvegicus [37] = assay: Biodistribution in Wistar rat rest of brain at 20 MBq, iv after 5 mins; assay type: ADME, organism-based; conditions: in vivo

## C=CCC1Oc2cccc(O[11CH3])c2-c2ccc3c(c21)C(C)=CC(C)(C)N3 (stereo not given)
Thymus [1]
  Drug uptake: 1.6 % ID/g
Muscle tissue [2]
  Drug uptake: 0.52 % ID/g
Liver [3]
  Drug uptake: 3.04 % ID/g
Lung [4]
  Drug uptake: 1.11 % ID/g
Harderian gland [5]
  Drug uptake: 1.68 % ID/g
Hippocampus [6]
  Drug uptake: 1.35 % ID/g
Rattus norvegicus [7]
  Drug uptake: 1.19 % ID/g
Lung [8]
  Drug uptake: 1.44 % ID/g
Rattus norvegicus [9]
  Drug uptake: 5.22 % ID/g
Muscle tissue [10]
  Drug uptake: 0.9 % ID/g
Cerebellum [11]
  Drug uptake: 1.46 % ID/g
Rattus norvegicus [12]
  Drug uptake: 0.47 % ID/g
Rattus norvegicus [13]
  Drug uptake: 0.43 % ID/g
Rattus norvegicus [14]
  Drug uptake: 5 % ID/g
Liver [15]
  Drug uptake: 2.65 % ID/g
Blood [16]
  Drug uptake: 0.6 % ID/g
Rattus norvegicus [17]
  Drug uptake: 0.56 % ID/g
Cerebellum [18]
  Drug uptake: 0.53 % ID/g
Hippocampus [19]
  Drug uptake: 1.3 % ID/g
Lung [20]
  Drug uptake: 1.44 % ID/g
Blood [21]
  Drug uptake: 0.52 % ID/g
Liver [22]
  Drug uptake: 3.84 % ID/g
Cortex
  Drug uptake: 0.6 % ID/g
Harderian gland [23]
  Drug uptake: 3.35 % ID/g
Heart [24]
  Drug uptake: 1.7 % ID/g
Muscle tissue [25]
  Drug uptake: 0.94 % ID/g
Pituitary gland [26]
  Drug uptake: 2.45 % ID/g
Blood [27]
  Drug uptake: 0.74 % ID/g
Thymus [28]
  Drug uptake: 1.46 % ID/g
Pituitary gland [29]
  Drug uptake: 1.76 % ID/g
Adrenal [30]
  Drug uptake: 8.68 % ID/g
Spleen [31]
  Drug uptake: 0.91 % ID/g
Adrenal [32]
  Drug uptake: 3.8 % ID/g
Rattus norvegicus [33]
  Drug uptake: 8.54 % ID/g
Heart [34]
  Drug uptake: 0.75 % ID/g
Femur
  Drug uptake: 0.88 % ID/g
Kidney
  Drug uptake: 1.13 % ID/g
Spleen [35]
  Drug uptake: 0.97 % ID/g
Rattus norvegicus [36]
  Drug uptake: 1.46 % ID/g
Rattus norvegicus [37]
  Drug uptake: 1.52 % ID/g
